For assay [1], the system named is HeLa. The assay is described as follows: Potency index, ratio of IC50 for adriamycin to IC50 for test compound for cytotoxicity against human HeLa cells. Type of assay: functional.
A short description of assay [2]: Potency index, ratio of IC50 for adriamycin to IC50 for test compound for cytotoxicity against human HCT15 cells. Type of assay: functional, HCT-15.
The target in assay [3] is T1, DNA topoisomerase 1 (Homo sapiens) (UniProt P11387).
T1 sequence (whole entry): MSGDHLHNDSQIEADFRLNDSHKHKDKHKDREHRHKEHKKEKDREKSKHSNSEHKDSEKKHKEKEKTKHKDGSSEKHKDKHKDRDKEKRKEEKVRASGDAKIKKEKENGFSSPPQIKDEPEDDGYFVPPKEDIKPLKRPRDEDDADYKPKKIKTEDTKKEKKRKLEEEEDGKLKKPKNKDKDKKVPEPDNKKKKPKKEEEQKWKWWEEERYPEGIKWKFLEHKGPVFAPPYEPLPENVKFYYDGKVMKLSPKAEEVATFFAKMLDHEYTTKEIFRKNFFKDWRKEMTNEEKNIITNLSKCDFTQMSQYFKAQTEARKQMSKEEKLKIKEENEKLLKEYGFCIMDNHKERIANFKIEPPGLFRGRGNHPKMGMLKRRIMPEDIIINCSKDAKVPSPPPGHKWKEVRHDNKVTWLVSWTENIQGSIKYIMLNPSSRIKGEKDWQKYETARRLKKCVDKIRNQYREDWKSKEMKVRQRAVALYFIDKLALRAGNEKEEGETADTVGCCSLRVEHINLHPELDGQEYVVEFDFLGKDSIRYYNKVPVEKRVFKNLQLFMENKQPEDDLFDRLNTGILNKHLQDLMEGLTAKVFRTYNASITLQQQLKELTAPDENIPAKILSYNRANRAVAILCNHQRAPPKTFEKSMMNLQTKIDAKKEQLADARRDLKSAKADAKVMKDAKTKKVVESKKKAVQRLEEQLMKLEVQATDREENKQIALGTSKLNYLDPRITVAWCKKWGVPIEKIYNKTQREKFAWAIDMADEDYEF
The experiment in a line: Inhibition of human recombinant DNA topoisomerase 1 at 100 uM assessed as relaxation of supercoiled DNA pBR322 after 30 mins by Agarose gel electrophoresis.

The test system of assay [4] is HeLa. The assay is described as follows: Cytotoxicity against human HeLa cells after 3 days by CCK8 assay. It counts as functional, cell-based. Conditions: 72 h. Background: Tetrazolium assays rely on reduction of a dye to a coloured formazan, in cell work by metabolically active cells.
The subject of assay [5] is T47D. The assay is described as follows: Potency index, ratio of IC50 for adriamycin to IC50 for test compound for cytotoxicity against human T47D cells. It counts as functional.
For assay [6], the system named is T47D. The experiment in a line: Cytotoxicity against human T47D cells after 3 days by CCK8 assay. Type of assay: functional, cell-based. As to conditions: 72 h.
A short description of assay [7]: Cytotoxicity against human HCT15 cells after 3 days by CCK8 assay. Type of assay: functional, cell-based. Conditions: HCT-15, 72 h.
Assay [8] deals with DNA topoisomerase 2-alpha (Homo sapiens) (UniProt P11388). The assay is described as follows: Inhibition of human recombinant DNA topoisomerase 2alpha at 100 uM assessed as relaxation of supercoiled DNA pBR322 after 30 mins by Agarose gel electrophoresis.
Assay [9] addresses T1, DNA topoisomerase 1 (Homo sapiens). The assay is described as follows: Inhibition of human recombinant DNA topoisomerase 1 at 20 uM assessed as relaxation of supercoiled DNA pBR322 after 30 mins by Agarose gel electrophoresis.

Sequence of DNA topoisomerase 2-alpha (Homo sapiens) (P11388 whole entry): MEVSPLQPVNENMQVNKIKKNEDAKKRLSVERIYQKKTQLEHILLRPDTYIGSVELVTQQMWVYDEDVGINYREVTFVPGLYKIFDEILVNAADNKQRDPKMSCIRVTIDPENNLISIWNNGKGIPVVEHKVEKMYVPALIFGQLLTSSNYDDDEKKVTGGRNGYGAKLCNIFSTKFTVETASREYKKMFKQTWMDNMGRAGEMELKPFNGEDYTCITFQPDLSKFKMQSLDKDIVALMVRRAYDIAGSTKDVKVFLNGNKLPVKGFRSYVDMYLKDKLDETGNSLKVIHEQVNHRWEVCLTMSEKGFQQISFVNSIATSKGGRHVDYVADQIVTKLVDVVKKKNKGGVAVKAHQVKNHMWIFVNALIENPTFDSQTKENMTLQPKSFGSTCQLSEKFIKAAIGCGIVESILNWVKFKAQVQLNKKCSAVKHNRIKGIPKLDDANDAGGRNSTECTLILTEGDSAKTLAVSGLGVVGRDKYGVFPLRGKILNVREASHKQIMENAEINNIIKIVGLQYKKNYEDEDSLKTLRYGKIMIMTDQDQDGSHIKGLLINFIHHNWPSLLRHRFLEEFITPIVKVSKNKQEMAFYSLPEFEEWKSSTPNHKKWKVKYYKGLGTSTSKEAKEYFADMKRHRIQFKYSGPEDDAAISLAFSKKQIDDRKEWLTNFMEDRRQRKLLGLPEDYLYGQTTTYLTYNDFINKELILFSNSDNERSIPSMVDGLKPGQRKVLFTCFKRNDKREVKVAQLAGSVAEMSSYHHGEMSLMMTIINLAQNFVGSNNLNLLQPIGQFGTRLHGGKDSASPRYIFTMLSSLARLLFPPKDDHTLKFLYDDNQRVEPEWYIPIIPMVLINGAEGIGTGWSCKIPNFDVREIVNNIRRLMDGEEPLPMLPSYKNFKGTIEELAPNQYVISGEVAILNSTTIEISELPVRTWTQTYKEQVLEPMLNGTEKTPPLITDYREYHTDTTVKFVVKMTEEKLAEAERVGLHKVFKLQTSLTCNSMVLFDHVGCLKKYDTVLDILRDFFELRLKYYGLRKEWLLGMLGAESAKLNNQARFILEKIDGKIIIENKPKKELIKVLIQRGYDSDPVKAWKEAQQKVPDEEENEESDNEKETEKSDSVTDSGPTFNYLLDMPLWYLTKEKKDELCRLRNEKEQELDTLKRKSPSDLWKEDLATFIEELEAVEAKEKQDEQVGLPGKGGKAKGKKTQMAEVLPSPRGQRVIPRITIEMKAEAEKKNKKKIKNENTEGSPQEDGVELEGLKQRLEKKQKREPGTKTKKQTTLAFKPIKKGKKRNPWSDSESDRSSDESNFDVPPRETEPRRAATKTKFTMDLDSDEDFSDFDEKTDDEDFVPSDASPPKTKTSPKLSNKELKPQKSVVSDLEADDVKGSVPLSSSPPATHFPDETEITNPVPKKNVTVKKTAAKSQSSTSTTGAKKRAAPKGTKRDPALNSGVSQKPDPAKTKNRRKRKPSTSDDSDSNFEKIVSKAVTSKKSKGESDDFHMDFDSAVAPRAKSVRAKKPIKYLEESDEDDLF

As for `Oc1ccc(-c2cc(-c3cccc(Cl)c3)c3c(n2)-c2ccccc2C3)cc1`, the “Ratio IC50” value with HeLa [1] is 0.22; in assay [2], 0.12; in the assay with T47D [5], 0.9. Also, the inhibition in assay [3] was found to be 35.5%; in assay [8], 4.9%; in assay [9] it was 2.8%. The IC50 with HeLa [4] turned out to be 3.68 µM; in the assay with T47D [6], 1.63 µM; in assay [7] it was 0.81 µM.

As for `Oc1ccc(-c2cc(-c3ccccc3Cl)c3c(n2)-c2ccccc2C3)cc1`, the “Ratio IC50” value in the assay with HeLa [1] is reported as 0.24; in assay [2], 0.12; with T47D [5], 0.9. Moreover, the inhibition in assay [3] stood at 15.5%; in assay [8], 1.6%. For the same compound, the IC50 is 3.41 µM in the assay with HeLa [4], 1.63 µM with T47D [6] and 0.84 µM in [7].

As to `Oc1cccc(-c2cc(-c3cccc(Cl)c3)c3c(n2)-c2ccccc2C3)c1`, the “Ratio IC50” value with HeLa [1] is listed as 0.43; in assay [2] it was 0.06; in the assay on T47D [5] it was 0.79. For the same compound, the values for the inhibition in [3] and in assay [8] were 7.5% and 4.4%, respectively. The IC50 in the assay on HeLa [4] came out at 1.91 µM; in the assay with T47D [6], 1.85 µM; in [7], 1.59 µM.

In general, inhibition refers to the share of the control response that was lost under treatment. One may read the IC50 as the midpoint of a concentration-inhibition curve. Low readings indicate higher potency, high ones lower potency.

The values above are taken from ChEMBL document CHEMBL3779848, “Effect of chlorine substituent on cytotoxic activities: Design and synthesis of systematically modified 2,4-diphenyl-5H-indeno[1,2-b]pyridines” (Bioorg Med Chem Lett, 2016).
